Results as given in patent US10799590B2, “Compositions containing a bitter tastant and at least one sophorolipid, and methods of reducing bitter taste attributed to a bitter tastant in an edible composition” (The United States of America, as Represented by the …, priority 2015, dated 2020).

Target: T1, sweet receptor (T1R2+T1R3) (Homo sapiens, UniProt Q7RTX0)
T1 construct: culture human fungiform taste papillae cells retaining their physiological and molecular characteristics; endogenous in cells; host or cells: cultured primary human fungiform taste papillae (HBO) cells
T1 sequence (Q7RTX0 21-852): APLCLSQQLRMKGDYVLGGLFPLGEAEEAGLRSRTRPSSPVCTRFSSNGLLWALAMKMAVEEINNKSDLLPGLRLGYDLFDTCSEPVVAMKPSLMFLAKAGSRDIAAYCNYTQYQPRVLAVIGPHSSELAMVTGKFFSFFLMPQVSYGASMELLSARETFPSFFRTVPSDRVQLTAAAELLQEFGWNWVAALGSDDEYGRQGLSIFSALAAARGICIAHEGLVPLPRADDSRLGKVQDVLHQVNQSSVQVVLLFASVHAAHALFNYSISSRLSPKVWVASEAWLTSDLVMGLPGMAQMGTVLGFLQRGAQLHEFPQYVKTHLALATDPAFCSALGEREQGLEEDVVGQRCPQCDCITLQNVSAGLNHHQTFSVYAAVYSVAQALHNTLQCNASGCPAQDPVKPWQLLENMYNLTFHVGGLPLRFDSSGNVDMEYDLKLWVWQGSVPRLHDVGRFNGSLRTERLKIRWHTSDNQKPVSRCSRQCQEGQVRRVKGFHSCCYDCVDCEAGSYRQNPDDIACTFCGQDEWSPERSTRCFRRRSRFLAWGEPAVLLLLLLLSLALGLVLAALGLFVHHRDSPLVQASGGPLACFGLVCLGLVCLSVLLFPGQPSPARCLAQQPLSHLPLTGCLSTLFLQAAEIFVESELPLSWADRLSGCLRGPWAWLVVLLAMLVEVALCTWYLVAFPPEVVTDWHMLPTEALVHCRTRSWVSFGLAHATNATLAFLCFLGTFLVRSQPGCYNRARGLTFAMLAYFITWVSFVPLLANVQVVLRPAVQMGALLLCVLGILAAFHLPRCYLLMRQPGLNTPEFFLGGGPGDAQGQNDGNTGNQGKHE
T1 sequence (Q8TE23 20-839 partner): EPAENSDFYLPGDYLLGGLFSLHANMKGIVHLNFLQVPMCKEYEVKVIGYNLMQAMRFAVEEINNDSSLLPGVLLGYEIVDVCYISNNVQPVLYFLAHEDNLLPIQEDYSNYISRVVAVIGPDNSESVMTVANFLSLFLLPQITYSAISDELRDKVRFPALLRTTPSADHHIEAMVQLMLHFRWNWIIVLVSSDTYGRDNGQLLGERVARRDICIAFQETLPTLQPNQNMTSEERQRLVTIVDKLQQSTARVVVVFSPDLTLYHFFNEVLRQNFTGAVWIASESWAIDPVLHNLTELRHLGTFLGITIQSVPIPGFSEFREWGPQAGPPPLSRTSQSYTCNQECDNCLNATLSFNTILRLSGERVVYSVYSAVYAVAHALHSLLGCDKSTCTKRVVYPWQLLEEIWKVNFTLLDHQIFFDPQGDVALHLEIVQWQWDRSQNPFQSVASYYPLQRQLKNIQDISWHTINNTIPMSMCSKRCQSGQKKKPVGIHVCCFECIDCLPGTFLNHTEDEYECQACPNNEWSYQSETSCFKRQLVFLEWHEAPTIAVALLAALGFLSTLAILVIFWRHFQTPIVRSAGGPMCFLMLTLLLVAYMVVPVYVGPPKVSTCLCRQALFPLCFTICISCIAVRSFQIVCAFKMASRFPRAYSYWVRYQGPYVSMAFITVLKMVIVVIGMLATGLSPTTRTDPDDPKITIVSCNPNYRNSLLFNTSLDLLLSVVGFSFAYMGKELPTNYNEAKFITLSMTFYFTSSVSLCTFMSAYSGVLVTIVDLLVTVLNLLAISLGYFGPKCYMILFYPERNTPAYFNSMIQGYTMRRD
Assay: Lactisole sensitivity of sophorolipid-induced calcium responses in cultured HBO cells
Assay type: cell-based
Settings: lactisole = T1R3 blocker; C16-SL-responsive cells n=29 (FIG. 4)
Description: In vitro cell-based assay of sweet property. Establishment and maintenance of cultures of human fungiform taste papillae cells (HBO cells): We previously established the current proprietary protocol (Ozdener, H., et al., Chem. Senses, 31(3): 279-90 (2006); Ozdener, M. H., et al., Chem. Senses, 36(7): 601-12 (2011); Ozdener, H., et al., Isolation and culture of human fungiform taste papillae cells, J. Vis. Exp., 2012 May 17;(63):e3730) which allowed us to culture human fungiform taste papillae cells retaining their physiological and molecular characteristics for more than a year.
The human fungiform taste papillae cells were cultured according to protocols that we have published (Ozdener et al. 2006, Ozdener et al. 2011). […]
Calcium imaging: Cultured taste cells grown for 3-4 days glass coverslips which were loaded for 30-60 min with the calcium sensitive dye fura-2 by incubating the cells in Ringer solution (145 mM NaCl, 5 mM KCl, 1 mM MgCl2, 1 mM CaCl2, 1 mM Na-pyruvate, 20 mM Hepes-Na and Cellobiose 15 mM, pH 7.2 with osmolarity adjusted to 300-310 by 5M NaCl) supplemented with […] (Molecular Probes Inc., Eugene, Oreg.) and 10 mg/ml Pluronic® F127 (Molecular Probes Inc.). […] Stimuli were dissolved in Ringer and then pH and osmolarity readjusted if needed. […]

effect of lactisole on induced Ca responses, lactisole-sensitive HBO cells: lactisole sensitive
Compound: OC[C@H]1O[C@@H](O[C@@H]2[C@@H](O)[C@H](O)[C@@H](CO)O[C@H]2O)[C@H](O)[C@@H](O)[C@@H]1O [Sophorose, 2-O-β-D-glucopyranosyl-β-D glucopyranose]
